Experimental data reported in patent US10441669B2, “Multifunctional chelators, complexes, and compositions thereof, and methods of using same” (ILLINOIS INSTITUTE OF TECHNOLOGY, priority 2013, dated 2019).

Key:
[1] = EDTA challenge of 64Cu-radiolabeled complexes of chelators A-F; type: physicochemical; settings: EDTA 100-fold molar excess; for Bound complex (%): 64Cu complex, 37° C.; for 64Cu activity dissociated from the complex / transferred to EDTA: 24 h time point
Procedure: ^64Cu-radiolabeled complexes were further evaluated for complex stability based on EDTA challenge. ^64Cu-radiolabeled complexes were freshly prepared and treated with a solution of EDTA at a 100-fold molar excess, and the resulting solution (pH 5.5) was incubated at 37° C. for 24 h. […] Among the complexes tested, ^64Cu-radiolabeled pentadentate chelator B was least tolerant of EDTA treated, and most of ^64Cu was dissociated from the complex (˜80%) at 24 h time point. ^64Cu-radiolabeled chelator C containing the carbonyl donor group was found dissociated rapidly in the presence of the excess EDTA, and 50% of the activity was transchelated by EDTA at 1 h time point. ^64Cu-radiolabeled chelators D and F with the respective hydroxyl and thiophenyl donor group were slower in dissociation than ^64Cu-radiolabeled chelators B and C and released >45% of ^64Cu at 24 h time point. Dissociation of the activity from the ^64Cu-radiolabeled chelators was also measured using radio-HPLC at 25 h time point (FIG. 5). The peak related to ^64Cu-EDTA (tR=2.5 min) was clearly separated from bound ^64Cu complex of the chelators. ^64Cu-radiolabeled complex of polar chelators E and F have the respective retention time at […] and 6.2 min, while other ^64Cu-radiolabeled complexes have similar retention time (tR=7˜8 min). The ^64Cu-radiolabeled chelators C and D gave a small peak (tR=˜3 min and tR=˜7 min, respectively).
^64Cu-radiolabeled complexes were prepared by reaction of each chelator (20 μg) with ^64Cu (60 μCi) in 0.25M NH4OAc buffer (pH 5.5) for 2 h at room temperature. The radiolabeled complexes were prepared as described above and directly used for the experiments. ^64Cu-radiolabeled complex was mixed with EDTA at a 100-fold molar excess. The resulting mixture was incubated for 24 h at 37° C. The stability of ^64Cu-radiolabeled complexes in the solution was evaluated using ITLC (20 mM EDTA in 0.15M NH4OAc). A solution of the radiolabeled complex in serum (3˜20 μL) was withdrawn at the designated time points and evaluated by ITLC as described above. Stability of the complexes was also evaluated at 25 h time point by HPLC (solvent A: 0.1% TFA in H2O, solvent B: 0.1% TFA in CH3CN, 0-100% B/15 min, flow rate: 1 mL/min). ^64Cu-EDTA complex was eluted early (tR=˜2.5 min), while ^64Cu-radiolabeled complexes of chelators A-D, E, and F have the respective retention time (tR=7˜8 min, tR=4.6 min, and tR=6.2 min).

[2] = In vitro serum stability of 177Lu-radiolabeled bimodal chelator complexes; type: in vitro ADME; settings: 177Lu complex, human serum, pH 7, 37° C.
[3] = In vitro serum stability of 90Y-radiolabeled bimodal chelator complexes; type: in vitro ADME; settings: 90Y complex, human serum, pH 7, 37° C.
Procedure: Human serum was purchased from Gemini Bioproducts (#100110). The radiolabeled complexes was prepared and directly used for serum stability studies without further purification. The stability of the pure radiolabeled complexes in human serum was evaluated at 37° C. for 2 weeks. The serum stability of the radiolabeled complexes was assessed by measuring the transfer of the radionuclide from each complex to serum proteins using ITLC (acetonitrile/water (3:2 v/v). A solution of the radiolabeled complex in serum (5-16 μL for ITLC) was withdrawn at the designated time point and evaluated by ITLC. At each of the time points, the percentage of ^90Y released from each of the radiolabeled complexes into serum was assessed by ITLC.

[4] = Serum stability of 64Cu-radiolabeled complexes of pyridyl chelators; type: in vitro ADME; settings: 64Cu complex, human serum, 37° C.
Procedure: In vitro serum stability of the radiolabeled complexes was performed to determine if the chelators radiolabeled with ^64Cu remained stable without loss of the radioactivity in human serum as described above. All ^64Cu-radiolabeled chelators remained intact in human serum for 2 days as evidenced by ITLC and HPLC analysis.

[5] = EDTA challenge of 177Lu-radiolabeled pyridyl chelators; type: physicochemical; settings: 37° C.; for stability of 177Lu complex in EDTA solution: EDTA 100-fold molar excess, 24 h; for Bound (%): Lu-177 complex, EDTA solution 100-fold molar excess
Procedure: (§1) ^64Cu- or ^177Lu-radiolabeled complexes were prepared by reaction of each chelator (20 μg) with ^64Cu or ^177Lu (60 μCi) in 0.25M NH4OAc buffer (pH 5.5) for 2 h at room temperature. The radiolabeled complexes were prepared as described above and directly used for the experiments. The radiolabeled complex was mixed with EDTA at a 100-fold molar excess. The resulting mixture was incubated for 24 h at 37° C. The stability of ^64Cu-radiolabeled complexes in the solution was evaluated using ITLC (20 mM EDTA in 0.15M NH40OAc).

[6] = EDTA challenge of 64Cu-radiolabeled pyridyl chelator; type: physicochemical; settings: 37° C.; for Bound (%): Cu-64 complex, EDTA solution 100-fold molar excess
Procedure: as §1

[7] = Stability and radioactivity level of 64Cu complexes in mice; type: in vivo; settings: 64Cu complex

Bound complex (%) ([1]; pH 5.5, ITLC, 0 h) | Bound complex (%) ([1]; pH 5.5, ITLC, 1 h) | Bound complex (%) ([1]; pH 5.5, ITLC, 4 h) | Bound complex (%) ([1]; pH 5.5, ITLC, 19 h) | Bound complex (%) ([1]; pH 5.5, ITLC, 24 h) | Bound complex (%) ([1]; pH 5.5, radio-HPLC, 25 h) | Bound complex (%) ([4]; pH 7, HPLC, 0 hour) | Bound complex (%) ([4]; pH 7, HPLC, 19 hour) | Bound complex (%) ([4]; pH 7, HPLC, 48 hour) | Bound complex (%) ([4]; pH 7, ITLC, 0 hour) | Bound complex (%) ([4]; pH 7, ITLC, 19 hour) | Bound complex (%) ([4]; pH 7, ITLC, 48 hour) | SMILES | other results
97.7 ± 0.2 | 50.4 ± 0.4 | 45.8 ± 1.5 | 41.0 ± 0.4 | 39.0 ± 0.2 | 21.7 ± 1.3 | – | – | – | – | – | – | O=C(O)CN1CCN(CC(=O)O)CCN(CC(=O)CCc2ccc([N+](=O)[O-])cc2)CC1 [Chelator C, 2-[4-(carboxymethyl)-7-[4-(4-nitrophenyl)-2-oxobutyl]-1,4,7-triazonan-1-yl]acetic acid] | 64Cu activity transchelated by EDTA ([1]; 1 h time point): 50%
– | – | – | – | – | – | – | – | – | – | – | – | O=C(O)CN1CCN(CCN(CC(=O)O)CC(=O)O)CCN(CC(CCCc2ccc([N+](=O)[O-])cc2)N(CC(=O)O)CC(=O)O)CC1 (centres unmarked) [Chelator 1] | Bound radiolabeled complex (%) ([2]; 0 hour): 100 ± 0.07%; Bound radiolabeled complex (%) ([2]; 312 hour): 100 ± 0.00%; Bound radiolabeled complex (%) ([3]; 0 hour): 100 ± 0.00%; Bound radiolabeled complex (%) ([3]; 262 hour): 98.9 ± 1.34%; Bound radiolabeled complex (%) ([3]; 286 hour): 97.3 ± 2.92%; Bound radiolabeled complex (%) ([3]; 313 hour): 97.2 ± 2.46%; Bound radiolabeled complex (%) ([3]; 336 hour): 98.4 ± 0.67%
– | – | – | – | – | – | (99.9 ± 0.0) % | (99.9 ± 0.07) % | (100.0 ± 0.0) % | 99.9 ± 0.0 | 100 ± 0.0% | 100 ± 0.07 | O=C(O)CN1CCN(CCN(CC(=O)O)Cc2ccccn2)CCN(CC(=O)O)CC1 [Chelator 4] | stability of 177Lu complex in EDTA solution [5]: remained stable in EDTA solution without releasing significant amount of the radioactivity; Bound (%) ([5]; pH 5.5, 0 hour): 99.8%; Bound (%) ([5]; pH 5.5, 1 hour): 99.5%; Bound (%) ([5]; pH 5.5, 6 hour): 99.2%; Bound (%) ([5]; pH 5.5, 24 hour): 98.3%
– | – | – | – | – | – | – | – | – | – | – | – | O=C(O)CN(CCN1CCN(CCN(CC(=O)O)CC(=O)O)CCN(CC(CCCc2ccc([N+](=O)[O-])cc2)N(CC(=O)O)CC(=O)O)CC1)CC(=O)O (centres unmarked) [Chelator 2, 2-{[2-(4-{2-[bis(carboxymethyl)amino]-5-(4-nitrophenyl)pentyl}-7-{2-[bis(carboxy-methyl)amino]ethyl}-1,4,7-triazonan-1-yl)ethyl](carboxymethyl)amino}acetic acid] | Bound radiolabeled complex (%) ([2]; 0 hour): 99.9 ± 0.0%
– | – | – | – | – | – | (100 ± 0.0) % | (100 ± 0.0) % | (100 ± 0.0) % | 100.0 ± 0.07 | 100.0 ± 0.0^ % | 99.9 ± 0.07 | NCCCNC(=O)c1ccc(CN2CCN(CC(=O)O)CCN(CC(=O)O)CC2)nc1 [Chelator 13] | Bound (%) ([6]; pH 5.5, 0 hour): 100 ± 0.07%; Bound (%) ([6]; pH 5.5, 1 hour): 99.9 ± 0.07%; Bound (%) ([6]; pH 5.5, 24 hour): 99.2 ± 0.42%; stability of 64Cu complex in EDTA challenge ([6]; EDTA 100-fold molar excess, 24 h): extremely stable in EDTA challenge
99.9 ± 0.1 | 98.6 ± 0.6 | 96.8 ± 0.0 | 95.3 ± 0.5 | 94.9 ± 0.0 | 90.3 ± 0.3 | – | – | – | – | – | – | O=C(O)CN1CCN(CC(=O)O)CCN(C(CCc2ccc([N+](=O)[O-])cc2)C(=O)O)CC1 (centres unmarked) [Chelator A, 2-[4,7-bis(carboxymethyl)-1,4,7-triazonan-1-yl]-4-(4-nitrophenyl)butanoic acid, reference compound] | stability in mice and radioactivity level in blood and normal organs [7]: stable in mice and displayed low radioactivity level in the blood and the normal organs; 64Cu activity dissociated from the complex / transferred to EDTA [1]: ~5%
99.5 ± 0.3 | 86.8 ± 0.7 | 79.1 ± 0.4 | 59.3 ± 0.0 | 55.0 ± 0.6 | 41.0 ± 2.6 | – | – | – | – | – | – | O=C(O)CN1CCN(CC(=O)O)CCN(CC(O)CCc2ccc([N+](=O)[O-])cc2)CC1 (centres unmarked) [Chelator D, 2-[4-(carboxymethyl)-7-[2-hydroxy-4-(4-nitrophenyl)butyl]-1,4,7-triazonan-1-yl]acetic acid] | –
100 ± 0.1 | 95.7 ± 0.5 | 87.5 ± 0.4 | 59.5 ± 0.6 | 53.4 ± 1.7 | 42.3 ± 0.3 | – | – | – | – | – | – | O=C(O)CN1CCN(CC(=O)O)CCN(Cc2cccs2)CC1 [Chelator F, 2-[4-(carboxymethyl)-7-(thiophen-2-ylmethyl)-1,4,7-triazonan-1-yl]acetic acid] | –
– | – | – | – | – | – | (98.3 ± 2.0) % | (96.7 ± 0.0) % | (97.2 ± 0.21) % | 99.9 ± 0.07 | 99.8 ± 0.14% | 99.9 ± 0.0 | NCCCNC(=O)c1ccc(CN(CCN2CCN(CC(=O)O)CCN(CC(=O)O)CC2)CC(=O)O)nc1 [Chelator 10] | stability of 177Lu complex in EDTA solution [5]: remained stable in EDTA solution without releasing significant amount of the radioactivity; Bound (%) ([5]; pH 5.5, 0 hour): 99.8%; Bound (%) ([5]; pH 5.5, 1 hour): 95.7%; Bound (%) ([5]; pH 5.5, 6 hour): 94.9%; Bound (%) ([5]; pH 5.5, 24 hour): 94.6%
99.9 ± 0.1 | 90.4 ± 0.1 | 69.2 ± 0.3 | 22.9 ± 2.1 | 19.4 ± 1.1 | 11.9 ± 0.6 | – | – | – | – | – | – | O=C(O)CN1CCN(CCCc2ccc([N+](=O)[O-])cc2)CCN(CC(=O)O)CC1 [Chelator B, 2-[4-(carboxymethyl)-7-[3-(4-nitrophenyl)propyl]-1,4,7-triazonan-1-yl]acetic acid] | 64Cu activity dissociated from the complex / transferred to EDTA [1]: ~80%
